Measured values reported in ChEMBL document CHEMBL3046912, “Effectiveness of 1,3-dichloropropene as an alternative to methyl bromide in rotations of tomato (Solanum lycopersicum) and cucumber (Cucumis sativus) in China” (2012).
Calls of active or inactive are those of the source. The calls are words filed in the database; no cut-off is given here.

Assays:
Digitaria sanguinalis [1] = test: Herbicidal activity against Digitaria sanguinalis (hairy crabgrass) in cucumber plants fields exposed to 180 L/ha compound fumigation treatment assessed as hand weeding time per plot (reference value: 258.3 hr/ha); type: functional
Digitaria sanguinalis [2] = test: Herbicidal activity against Digitaria sanguinalis (hairy crabgrass) in cucumber plants fields exposed to 90 L/ha compound fumigation treatment assessed as hand weeding time per plot relative to untreated control; type: functional
Solanum lycopersicum [3] = test: Increase in crop yield in Cucumis sativus (cucumber) plants exposed to 180 L/ha compound fumigation treatment assessed as medium fruit yield (reference value: 38.6 ton/ha); type: functional
Capsella bursa-pastoris [4] = test: Herbicidal activity against Capsella bursa-pastoris in tomato plants fields exposed to 120 L/ha compound fumigation treatment assessed as hand weeding time per plot (reference value: 243.3 hr/ha); type: functional
Solanum lycopersicum [5] = test: Increase in crop yield in Cucumis sativus (cucumber) plants exposed to 120 L/ha compound fumigation treatment assessed as large fruit yield (reference value: 19.5 ton/ha); type: functional
Solanum lycopersicum [6] = test: Increase in crop yield in Solanum lycopersicum (tomato) plants exposed to 90 L/ha compound fumigation treatment assessed as marketable yield fruit yield (reference value: 51.3 ton/ha); type: functional
Digitaria sanguinalis [7] = test: Herbicidal activity against Digitaria sanguinalis (hairy crabgrass) in cucumber plants fields exposed to 180 L/ha compound fumigation treatment assessed as hand weeding time per plot relative to untreated control; type: functional
Capsella bursa-pastoris [8] = test: Herbicidal activity against Capsella bursa-pastoris in tomato plants fields exposed to 180 L/ha compound fumigation treatment assessed as hand weeding time per plot (reference value: 243.3 hr/ha); type: functional
Solanum lycopersicum [9] = test: Increase in plant height of Solanum lycopersicum (tomato) exposed to 120 L/ha compound fumigation treatment measured 50 days after compound treatment (reference value: 86.2 cm); type: functional
Meloidogyne incognita [10] = test: Nematicidal activity against Meloidogyne incognita (root-knot nematode) in tomato growing fields exposed to 90 L/ha compound fumigation treatment assessed as root galling index measured 20 days after compound treatment (reference value: 8.51 root galling index); type: functional
Cucumis sativus [11] = test: Increase in plant height of Cucumis sativus (cucumber) exposed to 120 L/ha compound fumigation treatment measured 30 days after compound treatment (reference value: 85.6 cm); type: functional
Solanum lycopersicum [12] = test: Increase in crop yield in Cucumis sativus (cucumber) plants exposed to 180 L/ha compound fumigation treatment assessed as large fruit yield (reference value: 19.5 ton/ha); type: functional
Solanum lycopersicum [13] = test: Increase in crop yield in Solanum lycopersicum (tomato) plants exposed to 120 L/ha compound fumigation treatment assessed as medium fruit yield (reference value: 32.3 ton/ha); type: functional
Solanum lycopersicum [14] = test: Increase in crop yield in Solanum lycopersicum (tomato) plants exposed to 90 L/ha compound fumigation treatment assessed as extra-large fruit yield (reference value: 3.8 ton/ha); type: functional
Capsella bursa-pastoris [15] = test: Herbicidal activity against Capsella bursa-pastoris in tomato plants fields exposed to 90 L/ha compound fumigation treatment assessed as hand weeding time per plot (reference value: 243.3 hr/ha); type: functional
Arenaria serpyllifolia [16] = test: Herbicidal activity against Arenaria serpyllifolia in tomato plants fields exposed to 180 L/ha compound fumigation treatment assessed as hand weeding time per plot relative to untreated control; type: functional
Arenaria serpyllifolia [17] = test: Herbicidal activity against Arenaria serpyllifolia in cucumber plants fields exposed to 180 L/ha compound fumigation treatment assessed as hand weeding time per plot relative to untreated control; type: functional
Arenaria serpyllifolia [18] = test: Herbicidal activity against Arenaria serpyllifolia in tomato plants fields exposed to 180 L/ha compound fumigation treatment assessed as hand weeding time per plot (reference value: 243.3 hr/ha); type: functional
Solanum lycopersicum [19] = test: Increase in plant height of Solanum lycopersicum (tomato) exposed to 180 L/ha compound fumigation treatment measured 50 days after compound treatment (reference value: 86.2 cm); type: functional
Digitaria sanguinalis [20] = test: Herbicidal activity against Digitaria sanguinalis (hairy crabgrass) in tomato plants fields exposed to 90 L/ha compound fumigation treatment assessed as hand weeding time per plot (reference value: 243.3 hr/ha); type: functional
Cucumis sativus [21] = test: Increase in plant height of Cucumis sativus (cucumber) exposed to 180 L/ha compound fumigation treatment measured 30 days after compound treatment (reference value: 85.6 cm); type: functional
Digitaria sanguinalis [22] = test: Herbicidal activity against Digitaria sanguinalis (hairy crabgrass) in tomato plants fields exposed to 180 L/ha compound fumigation treatment assessed as hand weeding time per plot (reference value: 243.3 hr/ha); type: functional
Meloidogyne incognita [23] = test: Nematicidal activity against Meloidogyne incognita (root-knot nematode) in cucumber growing fields exposed to 180 L/ha compound fumigation treatment assessed as root galling index measured 20 days after compound treatment (reference value: 8.72 root galling index); type: functional
Capsella bursa-pastoris [24] = test: Herbicidal activity against Capsella bursa-pastoris in cucumber plants fields exposed to 90 L/ha compound fumigation treatment assessed as hand weeding time per plot (reference value: 258.3 hr/ha); type: functional
Solanum lycopersicum [25] = test: Increase in plant height of Solanum lycopersicum (tomato) exposed to 120 L/ha compound fumigation treatment measured 30 days after compound treatment (reference value: 28.4 cm); type: functional
Meloidogyne incognita [26] = test: Nematicidal activity against Meloidogyne incognita (root-knot nematode) in cucumber growing fields exposed to 120 L/ha compound fumigation treatment assessed as root galling index measured 20 days after compound treatment (reference value: 8.72 root galling index); type: functional
Solanum lycopersicum [27] = test: Increase in crop yield in Solanum lycopersicum (tomato) plants exposed to 180 L/ha compound fumigation treatment assessed as large fruit yield (reference value: 15.2 ton/ha); type: functional
Capsella bursa-pastoris [28] = test: Herbicidal activity against Capsella bursa-pastoris in cucumber plants fields exposed to 120 L/ha compound fumigation treatment assessed as hand weeding time per plot (reference value: 258.3 hr/ha); type: functional
Solanum lycopersicum [29] = test: Increase in crop yield in Cucumis sativus (cucumber) plants exposed to 120 L/ha compound fumigation treatment assessed as medium fruit yield (reference value: 38.6 ton/ha); type: functional
Arenaria serpyllifolia [30] = test: Herbicidal activity against Arenaria serpyllifolia in tomato plants fields exposed to 120 L/ha compound fumigation treatment assessed as hand weeding time per plot relative to untreated control; type: functional
Phytophthora melonis = test: Fungicidal activity against Phytophthora melonis-induced blight disease in cucumber plants at 120 to 180 L/ha measured 20 to 60 days post compound treatment; type: functional, organism-based
Capsella bursa-pastoris [31] = test: Herbicidal activity against Capsella bursa-pastoris in tomato plants fields exposed to 120 L/ha compound fumigation treatment assessed as hand weeding time per plot relative to untreated control; type: functional
Digitaria sanguinalis [32] = test: Herbicidal activity against Digitaria sanguinalis (hairy crabgrass) in tomato plants fields exposed to 120 L/ha compound fumigation treatment assessed as hand weeding time per plot (reference value: 243.3 hr/ha); type: functional
Botrytis cinerea = test: Fungicidal activity against Botryotinia fuckeliana-induced withering in tomato plants at 120 to 180 L/ha measured 20 to 60 days post compound treatment; type: functional, organism-based
Solanum lycopersicum [33] = test: Increase in plant height of Solanum lycopersicum (tomato) exposed to 180 L/ha compound fumigation treatment measured 30 days after compound treatment (reference value: 28.4 cm); type: functional
Solanum lycopersicum [34] = test: Increase in crop yield in Cucumis sativus (cucumber) plants exposed to 90 L/ha compound fumigation treatment assessed as extra-large fruit yield (reference value: 7.2 ton/ha); type: functional
Capsella bursa-pastoris [35] = test: Herbicidal activity against Capsella bursa-pastoris in cucumber plants fields exposed to 180 L/ha compound fumigation treatment assessed as hand weeding time per plot relative to untreated control; type: functional

`Cl/C=C/CCl` [1,3-DICHLOROPROPENE] gave a Time (Digitaria sanguinalis [1]) of 62.3 hr/ha, an Activity (Digitaria sanguinalis [2]) of 45% and a Crop_yield (Solanum lycopersicum [3]) of 52.3 tons/ha. The Time (Capsella bursa-pastoris [4]) was 66.4 hr/ha, the Crop_yield (Solanum lycopersicum [5]) was 27.9 tons/ha and the Crop_yield (Solanum lycopersicum [6]) was 62.4 tons/ha. It also gave an Activity (Digitaria sanguinalis [7]) of 45%, a Time (Capsella bursa-pastoris [8]) of 55.6 hr/ha and an Activity (Solanum lycopersicum [9]) of 108.6 cm. The Root_galling_index (Meloidogyne incognita [10]) was 3.28, the Activity (Cucumis sativus [11]) was 96.8 cm and the Crop_yield (Solanum lycopersicum [12]) was 31.7 tons/ha. It also gave a Crop_yield (Solanum lycopersicum [13]) of 42.5 tons/ha, a Crop_yield (Solanum lycopersicum [14]) of 4.8 tons/ha and a Time (Capsella bursa-pastoris [15]) of 85.6 hr/ha. The Activity (Arenaria serpyllifolia [16]) was 45%, the Activity (Arenaria serpyllifolia [17]) was 45% and the Time (Arenaria serpyllifolia [18]) was 55.6 hr/ha. The Activity (Solanum lycopersicum [19]) was 117.8 cm, the Time (Digitaria sanguinalis [20]) was 85.6 hr/ha and the Activity (Cucumis sativus [21]) was 105.6 cm. The Time (Digitaria sanguinalis [22]) was 55.6 hr/ha, the Root_galling_index (Meloidogyne incognita [23]) was 2.02 and the Time (Capsella bursa-pastoris [24]) was 90.5 hr/ha. For the same molecule, the Activity (Solanum lycopersicum [25]) was 37.9 cm, the Root_galling_index (Meloidogyne incognita [26]) was 2.92 and the Crop_yield (Solanum lycopersicum [27]) was 22.6 tons/ha. For the same molecule, the Time (Capsella bursa-pastoris [28]) was 74.4 hr/ha, the Crop_yield (Solanum lycopersicum [29]) was 49.1 tons/ha and the Activity (Arenaria serpyllifolia [30]) was 45%. For the same molecule, the Activity (Phytophthora melonis) was “Active”, the Activity (Capsella bursa-pastoris [31]) was 45% and the Time (Digitaria sanguinalis [32]) was 66.4 hr/ha. For the same molecule, the Activity (Botrytis cinerea) was “Active”, the Activity (Solanum lycopersicum [33]) was 45.4 cm and the Crop_yield (Solanum lycopersicum [34]) was 11.5 tons/ha. The Activity (Capsella bursa-pastoris [35]) was 45%.
